Results from patent US10745377B2, “Piperidine or piperazine linked imidazole and triazole derivatives and methods of use” (MERCK SHARP & DOHME CORP., priority 2013, dated 2020).

Assays:
Type in all cases: biochemical
CYP2C9 = target: T1, CYP2C9 (Homo sapiens, UniProt P11712); experiment: Cocktail assay for CYPs in human liver microsomes: CYP2C9 (diclofenac 4′-hydroxylation); details: human liver microsomes 0.1 mg/mL, 5 μM diclofenac, 10 min at 37° C., 6 concentrations up to 10 μM; read-out: IC50 (nM) CYP2C9
T1 construct: 0.1 mg/mL protein human liver microsomes (BD Gentest); tissue BD Gentest; host or cells: human liver microsomes
Method: (§1) Determination of IC50 in a Cocktail Assay for CYPs 1A2, 2C9, 2C19, 2D6 and 3A4
(§2) This assay was performed in a standard 96-well plate design. […] The incubation substrate mix contains 10 μM phenacetin (1A2), 5 μM diclofenac (2C9), 30 μM mephenytoin (2C19), 5 μM dextromethorphan (2D6) and 2 μM midazolam (3A4), 0.1 mg/mL protein human liver microsomes (BD Gentest), 1 mM NAPDH, 3.3 mM MgCl2 and 100 mM potassium phosphate buffer (pH 7.4). The production of the metabolite of each probe substrate was determined after incubation for 10 min at 37° C. Quantitation of the metabolite peak area ratio against an internal standard (tolbutamide) was determined by LC/MS/MS analysis following acetonitrile treatment of the incubations.
(§3) Samples were analyzed in the MRM mode with a SCIEX API-4000 mass spectrometer (Applied Biosystems, Foster City, Calif.), with a Shimadzu LC-20 AD pump (Shimadzu corporation, Kyoto, JP) and a CTC PAL autosampler (Agilent Technologies, Switzerland). A Phenomenex, Luna, 5 μm, 100 A, 2.00×30 mm HPLC column was used for the separation. The mobile phases were: (A) 0.1% formic acid in water and (B) 0.1% formic acid in acetonitrile. The binary gradient was as follows.
(§4) The mass spectrum parameters were as follows:
(§5) The LC/MS/MS parameters for the analytes were as follows.
(§6) The peak area ratio of the analyte to the internal standard was used to quantify the metabolite. The values of peak area ratios in the presence of test compound were compared to those of maximum or minimum controls and were expressed as % inhibition by interpolating between the maximum and minimum peak area ratios. Incubations with no inhibitor were defined as the maxima.
(§7) The following equation was used to calculate the % inhibition: [1−[(X−Low control)/(High control−Low control)]]*100
(§8) For the IC50 calculation, SigmaPlot was used to plot the mean % inhibition versus the test compound concentrations and for non-linear regression analysis of the data. Depending on the range of data points defining the inhibition curve, the data may have been fit to the 4-parameter logistic equation.

CYP2D6 = target: T2, CYP2D6 (Homo sapiens, UniProt P10635); experiment: Cocktail assay for CYPs in human liver microsomes: CYP2D6 (dextromethorphan O-demethylation); details: human liver microsomes 0.1 mg/mL, 5 μM dextromethorphan, 10 min at 37° C., 6 concentrations up to 10 μM; read-out: IC50 (nM) CYP2D6
T2 construct: 0.1 mg/mL protein human liver microsomes (BD Gentest); tissue BD Gentest; host or cells: human liver microsomes
Method: as §1, §2, §3, §4, §5, §6, §7, §8

CYP2C19 = target: T3, CYP2C19 (Homo sapiens, UniProt P33261); experiment: Cocktail assay for CYPs in human liver microsomes: CYP2C19 (mephenytoin 4′-hydroxylation); details: human liver microsomes 0.1 mg/mL, 30 μM mephenytoin, 10 min at 37° C., 6 concentrations up to 10 μM; read-out: IC50 (nM) CYP2C19
T3 construct: 0.1 mg/mL protein human liver microsomes (BD Gentest); tissue BD Gentest; host or cells: human liver microsomes

CYP1A2 = target: T4, CYP1A2 (Homo sapiens, UniProt P05177); experiment: Cocktail assay for CYPs in human liver microsomes: CYP1A2 (phenacetin O-deethylation); details: human liver microsomes 0.1 mg/mL, 10 μM phenacetin, 10 min at 37° C., 6 concentrations up to 10 μM; read-out: IC50 (nM) CYP1A2
T4 construct: 0.1 mg/mL protein human liver microsomes (BD Gentest); tissue BD Gentest; host or cells: human liver microsomes
T4 sequence (P05177 1-516): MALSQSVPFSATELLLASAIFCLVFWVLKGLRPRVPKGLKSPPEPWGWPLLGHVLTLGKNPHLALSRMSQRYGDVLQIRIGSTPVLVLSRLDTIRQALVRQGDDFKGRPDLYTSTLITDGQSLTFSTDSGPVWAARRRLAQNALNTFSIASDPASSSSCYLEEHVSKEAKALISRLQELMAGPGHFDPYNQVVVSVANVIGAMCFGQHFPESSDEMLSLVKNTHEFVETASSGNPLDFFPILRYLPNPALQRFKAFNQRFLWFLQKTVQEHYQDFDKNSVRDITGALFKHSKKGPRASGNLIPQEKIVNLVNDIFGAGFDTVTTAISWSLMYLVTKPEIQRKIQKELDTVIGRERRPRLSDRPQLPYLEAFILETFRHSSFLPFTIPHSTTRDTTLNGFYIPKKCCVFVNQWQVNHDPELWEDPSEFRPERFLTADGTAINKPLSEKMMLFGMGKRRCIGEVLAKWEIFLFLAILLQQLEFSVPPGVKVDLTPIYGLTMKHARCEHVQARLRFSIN
Method: as §1, §2, §3, §4, §5, §6, §7, §8

CYP3A4 = target: T5, CYP3A4 (Homo sapiens, UniProt P08684); experiment: Cocktail assay for CYPs in human liver microsomes: CYP3A4 (midazolam 1′-hydroxylation); details: human liver microsomes 0.1 mg/mL, 2 μM midazolam, 10 min at 37° C., 6 concentrations up to 10 μM; read-out: IC50 (nM) CYP3A4
T5 construct: 0.1 mg/mL protein human liver microsomes (BD Gentest); tissue BD Gentest; host or cells: human liver microsomes
T5 sequence (P08684 whole entry): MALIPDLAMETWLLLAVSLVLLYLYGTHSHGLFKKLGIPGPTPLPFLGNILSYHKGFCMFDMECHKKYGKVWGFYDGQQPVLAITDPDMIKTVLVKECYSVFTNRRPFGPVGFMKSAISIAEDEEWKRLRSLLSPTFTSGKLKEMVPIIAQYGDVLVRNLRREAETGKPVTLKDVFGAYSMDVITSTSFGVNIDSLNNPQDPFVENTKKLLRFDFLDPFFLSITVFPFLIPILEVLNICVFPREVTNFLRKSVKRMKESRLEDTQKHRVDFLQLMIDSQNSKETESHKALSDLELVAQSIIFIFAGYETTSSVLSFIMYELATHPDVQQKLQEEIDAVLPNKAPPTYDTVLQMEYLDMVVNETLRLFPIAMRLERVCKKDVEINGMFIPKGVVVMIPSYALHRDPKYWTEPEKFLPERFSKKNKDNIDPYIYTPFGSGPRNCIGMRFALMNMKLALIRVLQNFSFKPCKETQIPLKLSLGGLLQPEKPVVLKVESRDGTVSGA

T3 sequence (P33261 whole entry): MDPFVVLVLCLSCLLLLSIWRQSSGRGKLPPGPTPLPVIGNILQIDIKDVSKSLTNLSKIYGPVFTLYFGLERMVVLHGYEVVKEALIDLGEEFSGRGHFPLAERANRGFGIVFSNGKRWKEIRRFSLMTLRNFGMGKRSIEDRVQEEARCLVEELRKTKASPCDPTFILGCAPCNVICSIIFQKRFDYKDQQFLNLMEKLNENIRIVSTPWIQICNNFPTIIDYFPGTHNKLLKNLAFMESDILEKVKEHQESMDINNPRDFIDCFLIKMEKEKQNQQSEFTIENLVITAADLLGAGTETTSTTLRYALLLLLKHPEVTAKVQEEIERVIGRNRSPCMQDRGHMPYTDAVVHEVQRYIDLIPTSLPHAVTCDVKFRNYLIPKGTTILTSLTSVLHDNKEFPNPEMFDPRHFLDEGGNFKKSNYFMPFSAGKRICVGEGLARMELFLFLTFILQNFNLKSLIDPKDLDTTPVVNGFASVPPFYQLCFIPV
T1 sequence (P11712 whole entry): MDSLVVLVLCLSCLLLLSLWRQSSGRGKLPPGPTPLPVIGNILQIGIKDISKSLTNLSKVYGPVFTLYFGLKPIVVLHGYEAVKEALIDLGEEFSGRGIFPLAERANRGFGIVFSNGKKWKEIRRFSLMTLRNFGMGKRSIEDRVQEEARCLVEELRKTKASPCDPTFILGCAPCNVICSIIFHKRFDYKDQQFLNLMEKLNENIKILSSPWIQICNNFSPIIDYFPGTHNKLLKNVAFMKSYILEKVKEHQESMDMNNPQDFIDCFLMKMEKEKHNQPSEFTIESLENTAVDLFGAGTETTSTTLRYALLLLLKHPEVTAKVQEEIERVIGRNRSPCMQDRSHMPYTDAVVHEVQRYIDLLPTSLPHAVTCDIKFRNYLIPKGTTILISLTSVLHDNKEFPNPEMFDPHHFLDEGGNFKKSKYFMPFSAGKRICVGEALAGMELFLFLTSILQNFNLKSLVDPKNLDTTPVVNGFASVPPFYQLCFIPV
T2 sequence (P10635 whole entry): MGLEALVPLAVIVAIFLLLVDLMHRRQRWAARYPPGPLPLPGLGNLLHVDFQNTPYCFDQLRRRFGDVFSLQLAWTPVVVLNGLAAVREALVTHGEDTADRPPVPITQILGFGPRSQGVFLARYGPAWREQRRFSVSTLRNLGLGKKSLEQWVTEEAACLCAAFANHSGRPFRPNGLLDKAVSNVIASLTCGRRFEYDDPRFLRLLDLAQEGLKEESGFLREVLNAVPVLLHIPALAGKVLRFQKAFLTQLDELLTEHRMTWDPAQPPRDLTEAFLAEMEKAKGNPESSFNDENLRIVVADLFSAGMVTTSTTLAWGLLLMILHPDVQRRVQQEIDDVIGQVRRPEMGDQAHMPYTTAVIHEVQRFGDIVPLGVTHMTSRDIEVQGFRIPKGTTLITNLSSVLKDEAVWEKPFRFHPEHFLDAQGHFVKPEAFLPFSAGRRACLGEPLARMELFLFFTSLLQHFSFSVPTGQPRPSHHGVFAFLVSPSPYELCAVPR

Row | Compound | IC50 (CYP2C9) | IC50 (CYP2D6) | IC50 (CYP2C19) | IC50 (CYP1A2) | IC50 (CYP3A4)
1 | C[C@H](c1ccc(C#N)cc1)n1cncc1CN1CCN(c2nc3ccccc3[nH]2)CC1 [Compound 39, (R)-4-(1-(5-((4-(1H-benzo[d]imidazol-2-yl)piperazin-1-yl)methyl)-1H-imidazol-1-yl)ethyl)benzonitrile] | > 10000 nM | 1580 nM | > 10000 nM | > 10000 nM | 23 nM
2 | CCS(=O)(=O)c1cnc(N2CCN(Cc3cncn3[C@H](C)Cc3ccc(F)cc3)CC2)s1 [Compound 40, (R)-5-(ethylsulfonyl)-2-(4-((1-(1-(4-fluorophenyl)propan-2-yl)-1H-imidazol-5-yl)methyl)piperazin-1-yl)thiazole] | > 10000 nM | 5260 nM | > 10000 nM | > 10000 nM | 27 nM
3 | CCS(=O)(=O)CCc1cnc(N2CCN(Cc3cncn3[C@H](C)Cc3ccc(F)cc3)CC2)s1 [Compound 41, (R)-5-(2-(ethylsulfonyl)ethyl)-2-(4-((1-(1-(4-fluorophenyl)propan-2-yl)-1H-imidazol-5-yl)methyl)piperazin-1-yl)thiazole] | 2700 nM | 2380 nM | 2230 nM | > 10000 nM | 30 nM
4 | CCS(=O)(=O)CCc1cnc(N2CCN(Cc3cncn3[C@H](C)c3ccc(Cl)cc3)CC2)s1 [Compound 42, (R)-2-(4-((1-(1-(4-chloro-phenyl)ethyl)-1H-imidazol-5-yl)methyl)piperazin-1-yl)-5-(2-(ethyl-sulfonyl)ethyl)thiazole] | > 10000 nM | 1660 nM | 2400 nM | > 10000 nM | 22 nM
5 | CCS(=O)(=O)CCc1cnc(N2CCN(Cc3cncn3[C@H](C)c3ccc(F)cc3)CC2)s1 [Compound 43, (R)-2-(4-((1-(1-(4-fluoro-phenyl)ethyl)-1H-imidazol-5-yl)methyl)piperazin-1-yl)-5-(2-(ethyl-sulfonyl)ethyl) thiazole] | > 10000 nM | 2950 nM | 4010 nM | > 10000 nM | 50 nM
6 | C[C@H](c1ccc(C#N)cc1)n1cncc1CN1CCN(c2ccccc2)C(C(=O)NC(C)(C)C)C1 (stereo partly drawn) [Compound 44, N-(tert-butyl)-4-((1-((R)-1-(4-cyanophenyl)ethyl)-1H-imidazol-5-yl)methyl)-1-phenylpiperazine-2-carboxamide] | 5090 nM | > 10000 nM | 5840 nM | > 10000 nM | 29 nM
7 | C[C@H](c1ccc(C#N)cc1)n1cncc1CN1CCN(c2ccccc2)C(C(=O)N2CCOCC2)C1 (stereo partly drawn) [Compound 46, 4-((1R)-1-(5-((3-(morpholine-4-carbonyl)-4-phenylpiperazin-1-yl)methyl)-1H-imidazol-1-yl)ethyl) benzonitrile] | > 10000 nM | > 10000 nM | > 10000 nM | > 10000 nM | 46 nM
8 | C[C@H](c1ccc(C#N)cc1)n1cncc1CN1CCN(c2ccccc2)C(C(=O)N2CCC(F)(F)CC2)C1 (stereo partly drawn) [Compound 47, 4-((1R)-1-(5-((3-(4,4-difluoropiperidine-1-carbonyl)-4-phenylpiperazin-1-yl)methyl)-1H-imidazol-1-yl)ethyl) benzonitrile] | 9270 nM | > 10000 nM | 7830 nM | > 10000 nM | 20 nM
9 | C[C@H](c1ccc(F)cc1)n1cncc1CN1CCN(c2ccccc2)[C@H](C(=O)N2CCCCC2)C1 [Compound 48] | 1470 nM | 4890 nM | 2000 nM | > 10000 nM | 31 nM
10 | Cc1cc(C(=O)N2CCN(Cc3cncn3[C@H](C)c3ccc(F)cc3)CC2c2ccccc2)no1 (stereo partly drawn) [Compound 49, (4-((1-((R)-1-(4-fluorophenyl)ethyl)-1H-imidazol-5-yl)methyl)-2-phenylpiperazin-1-yl)(5-methylisoxazol-3-yl)methanone] | 1810 nM | > 10000 nM | 2110 nM | > 10000 nM | 14 nM
11 | CC(=O)N1CCN(Cc2cncn2[C@H](C)c2ccc(F)cc2)CC1c1ccccc1 (stereo partly drawn) [Compound 51, 1-(4-((1-((R)-1-(4-fluorophenyl)ethyl)-1H-imidazol-5-yl)methyl)-2-phenylpiperazin-1-yl)ethanone] | > 10000 nM | > 10000 nM | > 10000 nM | > 10000 nM | 22 nM
12 | C[C@H](c1ccc(F)cc1)n1cncc1CN1CCN(C(=O)c2ccccn2)C(c2ccccc2)C1 (stereo partly drawn) [Compound 53] | 6120 nM | 9840 nM | > 10000 nM | > 10000 nM | 13 nM
13 | CC1CN(Cc2cncn2[C@H](C)c2ccc(F)cc2)CC(C)N1C(=O)C1(C)CC1 (stereo partly drawn) [Compound 54, (4-((1-((R)-1-(4-fluorophenyl)ethyl)-1H-imidazol-5-yl)methyl)-2,6-dimethylpiperazin-1-yl)(1-methylcyclopropyl) methanone] | 2860 nM | > 10000 nM | 3350 nM | > 10000 nM | 14 nM
14 | C[C@H](c1ccc(F)cc1)n1cncc1CN1CCN(C(=O)c2ccccc2)C(C(C)(C)C)C1 (stereo partly drawn) [Compound 55, (2-(tert-butyl)-4-((1-((R)-1-(4-fluorophenyl)ethyl)-1H-imidazol-5-yl)methyl)piperazin-1-yl)(phenyl) methanone] | 2970 nM | 8030 nM | 2390 nM | > 10000 nM | 10 nM
15 | CC1CN(Cc2cncn2C(C)C2CCOCC2)CC(C)N1C(=O)C1(C)CC1 (stereo not drawn) [Compound 56, (2,6-dimethyl-4-((1-(1-(tetrahydro-2H-pyran-4-yl)ethyl)-1H-imidazol-5-yl)methyl)piperazin-1-yl)(1-methylcyclopropyl) methanone] | > 10000 nM | 7160 nM | > 10000 nM | > 10000 nM | 35 nM
16 | C[C@H](c1ccc(F)cc1)n1cncc1CN1CCN(C(=O)C2(C)CC2)C(c2ccc(N(C)C)cc2)C1 (stereo partly drawn) [Compound 57, (2-(4-(dimethylamino)phenyl)-4-((1-((R)-1-(4-fluorophenyl)ethyl)-1H-imidazol-5-yl)methyl)piperazin-1-yl)(1-methylcyclopropyl) methanone] | 2810 nM | 2450 nM | 2640 nM | > 10000 nM | 5 nM
17 | CC1CN(Cc2cncn2[C@H](C)c2ccc(C#N)cc2)CC(C)N1C(=O)C1CC(F)(F)C1 (stereo partly drawn) [Compound 58, 4-((1R)-1-(5-((4-(3,3-difluorocyclo-butanecarbonyl)-3,5-dimethylpiperazin-1-yl)methyl)-1H-imidazol-1-yl)ethyl)benzonitrile] | 2570 nM | > 10000 nM | > 10000 nM | > 10000 nM | 7 nM
18 | CC(c1ccccc1-c1ccc(F)cc1)n1cncc1CN1CCN(C(=O)c2ccccc2)CC1 (stereo not drawn) [Compound 59, (4-((1-(1-(4′-fluoro-[1,1′-biphenyl]-2-yl)ethyl)-1H-imidazol-5-yl)methyl)piperazin-1-yl)(phenyl) methanone] | 6480 nM | 2210 nM | 3360 nM | > 10000 nM | 9 nM
19 | CC(=O)N1CCN(Cc2cncn2C(C)c2ccccc2-c2ccc(F)cc2)CC1 (stereo not drawn) [Compound 60, 1-(4-((1-(1-(4′-fluoro-[1,1′-biphenyl]-2-yl)ethyl)-1H-imidazol-5-yl)methyl)piperazin-1-yl)ethanone] | > 10000 nM | 4500 nM | > 10000 nM | > 10000 nM | 23 nM
20 | C[C@H](c1ccc(F)cc1)n1cncc1CN1CCN(Cc2ccccc2)C(=O)C1 [Compound 61, (R)-1-benzyl-4-((1-(1-(4-fluorophenyl)ethyl)-1H-imidazol-5-yl)methyl)piperazin-2-one] | > 10000 nM | 2520 nM | 1620 nM | > 10000 nM | 23 nM
21 | C[C@H](c1ccc(F)cc1)n1cncc1CN1CCN(Cc2ccccc2Cn2cncn2)C(=O)C1 [Compound 62, (R)-1-(2-((1H-1,2,4-triazol-1-yl)methyl)benzyl)-4-((1-(1-(4-fluorophenyl)ethyl)-1H-imidazol-5-yl)methyl) piperazin-2-one] | 6210 nM | 5640 nM | 1140 nM | 6940 nM | 43 nM
